# Laboratory results reported in patent US6881719B2, “β-turn peptidomimetic cyclic compounds” (McGill University, priority 2000, dated 2005).
# Where “and” joins values, the source holds several entries; their conditions need not be identical. Equal values may be shown once.
# What was measured:
# [1] = target: T1, NIH3T3 fibroblasts expressing TrkA (Homo sapiens, UniProt P04629); test: Cell survival (MTT), NIH-TrkA; assay type: cell-based; conditions: 72 hours;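 also: 100% equals survival with optimal NGF at 1 nM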
# T1 construct: expressed in transfected cells; host or cells: NIH3T3 fibroblasts
# T1 sequence (P04629 33-796): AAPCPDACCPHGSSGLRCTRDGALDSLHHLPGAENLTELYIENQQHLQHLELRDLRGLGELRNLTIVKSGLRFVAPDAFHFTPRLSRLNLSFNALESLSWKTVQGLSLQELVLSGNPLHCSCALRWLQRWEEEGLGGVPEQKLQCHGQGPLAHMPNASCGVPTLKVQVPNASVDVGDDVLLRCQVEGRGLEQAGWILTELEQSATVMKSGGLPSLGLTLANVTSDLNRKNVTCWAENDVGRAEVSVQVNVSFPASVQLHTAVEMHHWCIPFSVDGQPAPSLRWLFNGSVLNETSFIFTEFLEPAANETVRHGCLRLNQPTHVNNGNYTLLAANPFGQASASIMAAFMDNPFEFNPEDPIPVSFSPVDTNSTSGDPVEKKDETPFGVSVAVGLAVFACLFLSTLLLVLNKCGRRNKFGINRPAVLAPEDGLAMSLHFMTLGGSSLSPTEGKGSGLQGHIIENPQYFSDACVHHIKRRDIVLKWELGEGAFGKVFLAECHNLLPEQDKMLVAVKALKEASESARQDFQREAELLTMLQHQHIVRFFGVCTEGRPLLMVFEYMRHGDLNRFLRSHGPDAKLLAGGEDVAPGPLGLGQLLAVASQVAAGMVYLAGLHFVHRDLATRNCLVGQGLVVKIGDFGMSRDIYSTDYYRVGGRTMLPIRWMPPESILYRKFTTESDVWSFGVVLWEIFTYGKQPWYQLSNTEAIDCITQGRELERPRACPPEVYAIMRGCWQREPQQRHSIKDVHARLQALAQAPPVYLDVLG
# Excerpt: The 4-3.6 cells are B104 cells stably transfected with human trkA cDNA, and express equal levels of p75 and TrkA (TrkA+ p75+). For screening agents that activate or antagonize TrkC receptors, NIH3T3 fibroblasts were stably transfected with human TrkC cDNA. […] For screening agents that activate or antagonize TrkA receptors, NIH3T3 fibroblasts were stably transfected with human TrkA cDNA.
# (§1) Cell lines: 5,000 cells/well in protein-free media (PFHM-II, GIBCO, Toronto) containing 0.2% bovine serum albumin (BSA) (Crystalline fraction V, Sigma, St. Louis, Mo.) were seeded in 96 well plates (Falcon, Mississauga, Ontario). The cultures were untreated, or treated with the indicated test or control ligands. Cell viability was quantitated using the MTT assay after 56-72 hours of culture. […] The OD of untreated cells were subtracted.
# [2] = target: T2, NIH3T3 fibroblasts expressing TrkC (Homo sapiens, UniProt Q16288); test: Cell survival (MTT), NIH-TrkC; assay type: cell-based; conditions: 72 hours
# T2 construct: expressed in transfected cells; host or cells: NIH3T3 fibroblasts
# T2 sequence (Q16288 32-839): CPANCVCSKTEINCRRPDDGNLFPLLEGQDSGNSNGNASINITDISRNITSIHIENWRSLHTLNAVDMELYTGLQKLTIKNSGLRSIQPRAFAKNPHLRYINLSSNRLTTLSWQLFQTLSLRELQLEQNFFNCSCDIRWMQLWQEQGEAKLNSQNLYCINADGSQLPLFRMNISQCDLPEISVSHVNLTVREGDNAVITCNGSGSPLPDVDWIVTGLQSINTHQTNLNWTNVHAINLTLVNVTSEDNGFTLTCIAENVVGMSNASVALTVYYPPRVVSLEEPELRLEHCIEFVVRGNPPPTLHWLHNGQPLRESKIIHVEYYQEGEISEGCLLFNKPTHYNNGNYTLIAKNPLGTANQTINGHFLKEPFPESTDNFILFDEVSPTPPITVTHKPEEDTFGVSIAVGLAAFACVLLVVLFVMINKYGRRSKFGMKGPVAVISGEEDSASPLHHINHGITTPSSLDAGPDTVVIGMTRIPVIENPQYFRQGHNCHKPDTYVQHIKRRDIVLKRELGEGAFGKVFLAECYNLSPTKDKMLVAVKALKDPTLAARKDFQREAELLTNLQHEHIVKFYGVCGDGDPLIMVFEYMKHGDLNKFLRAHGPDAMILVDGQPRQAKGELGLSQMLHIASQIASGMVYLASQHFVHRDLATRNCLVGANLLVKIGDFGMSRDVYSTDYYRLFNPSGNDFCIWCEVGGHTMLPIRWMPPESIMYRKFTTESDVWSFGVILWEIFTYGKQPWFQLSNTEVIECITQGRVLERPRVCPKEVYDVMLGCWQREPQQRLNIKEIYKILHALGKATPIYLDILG
# Excerpt: (§2) The 4-3.6 cells are B104 cells stably transfected with human trkA cDNA, and express equal levels of p75 and TrkA (TrkA+ p75+). For screening agents that activate or antagonize TrkC receptors, NIH3T3 fibroblasts were stably transfected with human TrkC cDNA. These cells respond to the ligand NT-3. For screening agents that activate or antagonize TrkA receptors, NIH3T3 fibroblasts were stably transfected with human TrkA cDNA. These cells respond to the ligand NGF.
# as §1, with “subtracted. The higher optical density of untreated primary cultures is likely due to cellular heterogeneity and to endogenous production of limiting amounts of growth factors.” for “subtracted.”
# [3] = tested on: wild type NIH3T3 fibroblasts; test: Cell survival (MTT), NIH wt; assay type: cell-based; conditions: 72 hours
# Excerpt: as §2
# as §1, with “subtracted. The higher optical density of untreated primary cultures is likely due to cellular heterogeneity and to endogenous production of limiting amounts of growth factors.” for “subtracted.”
# [4] = target: p75 NGF receptor on B104 rat neuroblastoma cells and 4-3.6 cells (rat) (UniProt P07174); test: FACScan, 4-3.6 cells, mAb 1 nM, no competitor
# p75 NGF receptor on B104 rat neuroblastoma cells and 4-3.6 cells (rat), sequence (P07174 30-425): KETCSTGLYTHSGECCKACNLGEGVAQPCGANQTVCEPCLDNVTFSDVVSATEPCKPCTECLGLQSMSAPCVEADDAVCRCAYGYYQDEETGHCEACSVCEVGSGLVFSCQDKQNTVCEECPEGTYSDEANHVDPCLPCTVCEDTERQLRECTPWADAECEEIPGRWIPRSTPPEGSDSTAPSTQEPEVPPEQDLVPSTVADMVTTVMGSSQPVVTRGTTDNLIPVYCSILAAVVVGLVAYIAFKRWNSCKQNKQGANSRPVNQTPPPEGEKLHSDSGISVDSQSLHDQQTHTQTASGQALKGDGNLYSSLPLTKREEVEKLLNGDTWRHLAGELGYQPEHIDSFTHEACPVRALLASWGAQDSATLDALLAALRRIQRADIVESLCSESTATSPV
# [5] = target: human TrkA expressed on transfected cells (4-3.6 cells; NIH3T3-TrkA cells) (human) (UniProt P04629); test: FACScan, 4-3.6 cells (p75+ TrkA+), avidin-FITC
# human TrkA expressed on transfected cells (4-3.6 cells; NIH3T3-TrkA cells) (human), sequence (P04629 33-796): as the sequence (P04629 33-796) above
# [6] = target: T3, HEK 293 cells expressing TrkB/TrkA IgG-C2 chimeric receptor (Homo sapiens, UniProt P04629+Q16620); test: Cell survival (MTT), HEK 293-TrkB/TrkA IgG-C2 chimera; assay type: cell-based; conditions: HEK 293-TrkB/TrkA chimera, 72 hours;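 as to % Protection: 100% equals survival with optimal NGF at 1 nM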
# T3 construct: The IgG-C2 domain of human TrkA was generated using unique restriction sites; expressed in transfected cells
# T3 sequence (P04629 299-365 limits assumed, change not shown, one chain of several): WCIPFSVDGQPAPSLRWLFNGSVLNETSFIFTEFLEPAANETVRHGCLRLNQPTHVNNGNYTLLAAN
# Excerpt: The IgG-C2 domain of human TrkA was generated using unique restriction sites in the primers to allow exchange with the corresponding rat TrkB domain. The chimeric receptors were constructed by subcloning the human TrkA IgG-C2 domain into the corresponding restriction sites of the rat trkB cDNA reported in a previous work (Perez et al., 1995). Chimeric constructs were confirmed by sequencing, and were cloned into the pCDNA3 expression vector that contains a selection gene providing resistance to neomycin (G418, GIBCO). HEK293 cells were transfected using the lipofectamine plus method (GIBCO), selected with neomycin (0.5 mg/ml) and at least 3 independent subclones were obtained by limiting dilution techniques (293-TrkB/A-IgC2 chimera).
# as §1
# TrkA-ECD = target: T4, TrkA-ECD (Homo sapiens, UniProt P04629); test: ELISA competition of mAb 5C3 binding to immobilized TrkA-ECD; conditions: mAb 5C3 2 nM; competitor 40 μM
# T4 construct: pure soluble TrkA extracellular domain (TrkA-ECD) produced in baculovirus; made in house
# T4 sequence (P04629 33-423 limits assumed): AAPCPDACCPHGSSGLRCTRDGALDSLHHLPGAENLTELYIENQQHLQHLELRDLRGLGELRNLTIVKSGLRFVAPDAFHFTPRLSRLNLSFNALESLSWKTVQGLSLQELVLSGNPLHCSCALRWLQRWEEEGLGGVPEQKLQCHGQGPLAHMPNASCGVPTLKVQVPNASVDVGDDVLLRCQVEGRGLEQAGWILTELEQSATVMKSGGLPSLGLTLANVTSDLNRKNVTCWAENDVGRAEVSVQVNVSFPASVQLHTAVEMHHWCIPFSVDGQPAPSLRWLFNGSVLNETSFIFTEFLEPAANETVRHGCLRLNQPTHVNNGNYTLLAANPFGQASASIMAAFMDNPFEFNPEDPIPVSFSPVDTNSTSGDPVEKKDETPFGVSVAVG
# Experimental: Direct binding studies: were done as described (Saragovi et al., 1998) using 6 ng/well of recombinant baculovirus TrkA-extracellular domain protein (TrkA-ECD) or control bovine serum albumin (BSA, Fraction V, Boehringer Mannheim) immobilized onto 96-well microtest plates. Wells were blocked with binding buffer (BB: PBS with 1% BSA) for 1 hour. Then, 50 ng/well of biotinylated D3 were added as primary reagent in BB for 40 min in the absence or presence of excess non-biotinylated D3 as competitor. Wells were washed 5 times with BB, and horseradish peroxidase (HRP)-coupled avidin (Sigma) was added as secondary reagent for 30 min. Plates were washed in BB, and peroxidase activity was determined colorimetrically using 2,2-azinobis (3-ethylbenzthiazoline sulfonic acid) (ABTS, Sigma). The optical density (OD) was measured at 414 nm in a Microplate reader (Bio-Rad). Assays were repeated at least three times, n=4.
# Binding Competition: studies were as described for direct binding assays to TrkA-ECD, except that as primary reagent 50 ng anti-TrkA mAb 5C3/well were added in BB, in the presence or absence of D3 or controls as competitors as described (Saragovi et al., 1998). Wells were washed 5 times with BB, and HRP-coupled goat anti-mouse was added as secondary reagent for 30 min. Plates were washed in BB, and peroxidase activity were determined. Assays were repeated at least three times, n=4.
# septal neuronal cultures = test: ChAT activity in septal neuronal cultures; assay type: cell-based, rat; conditions: compound 20 μM alone; day 8
# Experimental: Cell cultures were established from the septal area of 17-day-old rat embryos. In brief, tissue was incubated in PBS containing trypsin and DNase. Tissue pieces then were mechanically dissociated. After centrifugation, the pellet was suspended in Leibovitz's L-15 medium. Cells were plated onto 96-multiwell NUNC dishes (10^5 cells/well) coated with poly-D-lysine (5 μg/ml). Pure cultures of septal neurons were treated 1 day after plating. Drugs, prepared in medium, were added directly to the cells without changing the initial medium. The incubation continued for 8 days, at which time ChAT activity was evaluated.
# At day 8 of culture, the medium was aspirated, and ice-cold lysis buffer (10 mM sodium phosphate, pH 7.4/0.1% TritonX-100—Trade-mark) was added. ChAT activity assays were performed directly in the wells using Fonnum's method (Fonnum, 1975).
# cell surface TrkA = target: T5, cell surface TrkA (Homo sapiens, UniProt P04629); test: FACScan competition of mAb 5C3 binding on 4-3.6 cells; conditions: mAb 1 nM; competitor 40 μM
# T5 construct: expressed in transfected cells
# T5 sequence (P04629 33-796): as the sequence (P04629 33-796) above
# Excerpt: as §2
# (§3) FACScan binding assays: 4-3.6 cells (2×10^5) in FACScan binding buffer (PBS, 0.5% BSA, and 0.1% NaN3) were immunostained as described (Saragovi et al., 1998). Saturating anti-TrkA mAb 5C3, or anti-p75 mAb MC192, or control non-binding IgGs were added to cells for 1 hour at 4° C., in the presence or absence of D3 as competitor. Excess primary antibody was washed off, and cells were immunostained with fluorescinated goat-anti-mouse IgG secondary antibody. Cells were acquired on a FACScan and mean channel fluorescence of bell-shaped histograms were analyzed using the LYSIS II program.
# [7] = tested on: embryonic rat DRG primary neuronal cultures; test: Cell survival (MTT), primary DRG cultures; assay type: cell-based; conditions: compound 10 μM alone; 8 days;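 as to % Protection: 100% equals survival with optimal NGF at 1 nM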
# Experimental: Fetal rat DRG primary cultures were established from Sprague Dawley day 17 rat embryos. All ganglia were dissected and dissociated first enzymatically with trypsin and then mechanically. Dissociated cells were cultured (10^5 cells/well) in 96 well plates pre-coated with collagen, and grown for a total of 8 days in Neuro Basal Medium containing N2 supplement (GIBCO, Toronto), antibiotics, and L-glutamine. These DRG cultures are ˜85% TrkA-expressing and are heavily dependent on TrkA signals for survival.
# Primary DRG cultures: After a total of 8 days of culture with the indicated test or control ligands, cell survival were studied using the 3(4,5-Dimethylthiazolyl-2)-2,5-diphenyl tetrazolium bromide colorimetric (MTT) assay, and by microscopic observation.
# as §1, with “subtracted. The higher optical density of untreated primary cultures is likely due to cellular heterogeneity and to endogenous production of limiting amounts of growth factors.” for “subtracted.”
# p75 NGF receptor subunit = target: T6, p75 NGF receptor subunit (Rattus norvegicus, UniProt P07174); test: FACScan competition of anti-p75 mAb MC192 binding on 4-3.6 cells
# T6 construct: B104 rat neuroblastomas express p75 receptors; endogenous in cells
# T6 sequence (P07174 30-425): as the sequence (P07174 30-425) above
# Excerpt: as §2, §3
# 4-3.6 cells (p75+TrkA+) = test: Cell survival (MTT), 4-3.6 cells; assay type: cell-based, rat; conditions: 72 hours;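 as to % Protection: 100% equals survival with optimal NGF at 1 nM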
# Excerpt: as §2
# as §1, with “subtracted. The higher optical density of untreated primary cultures is likely due to cellular heterogeneity and to endogenous production of limiting amounts of growth factors.” for “subtracted.”
compound,measurement,setting,value
CCC(C)[C@@H]1NC(=O)C(CC(=O)O)NC(=O)c2cc([N+](=O)[O-])cc(I)c2OCCC(C(N)=O)NC1=O (stereo partly drawn) [P23],NIH-TrkA % Protection,[1]; agent 10 μM + 10 pM NGF,52 ± 3%
same,NIH-TrkA % Protection,[1]; agent 10 μM + 10 pM NT-3,21 ± 3%
same,NIH-TrkA % Protection,[1]; agent 10 μM alone,15 ± 2%
same,NIH-TrkC % Protection,[2]; agent 10 μM + 10 pM NGF,11 ± 5%
same,NIH-TrkC % Protection,[2]; agent 10 μM + 10 pM NT-3,51 ± 7%
same,NIH-TrkC % Protection,[2]; agent 10 μM alone,8 ± 2%
same,NIH wt % Protection,[3]; agent 10 μM + 10 pM NGF,1 ± 3%
same,NIH wt % Protection,[3]; agent 10 μM + 10 pM NT-3,1 ± 3%
same,NIH wt % Protection,[3]; agent 10 μM alone,0 ± 3%
anti-p75 monoclonal antibody MC192,% Maximal binding,[4],100%
control-biotin (an inactive biotinylated peptide),MCF,[5],10 MCF
CC(O)[C@@H]1NC(=O)c2cc([N+](=O)[O-])cc(I)c2NCCC(C(N)=O)NC(=O)CNC1=O (stereo partly drawn) [P42],NIH-TrkA % Protection,[1]; agent 10 μM + 10 pM NGF,9 ± 4%
same,NIH-TrkA % Protection,[1]; agent 10 μM + 1 nM NGF,68% and 68 ± 5%
same,NIH-TrkA % Protection,[1]; agent 10 μM alone,5 ± 2%
same,NIH wt % Protection,[3]; agent 10 μM alone,0 ± 3%
"NCCCC[C@@H]1NC(=O)[C@H](CCC(=O)O)NC(=O)c2cc([N+](=O)[O-])ccc2SCC(C(N)=O)NC1=O (stereo partly drawn) [C59, EKCys]",% Protection,[6]; compound 10 μM + 10 pM NGF,21 ± 6%
same,Optical Density,[6]; compound 10 μM + 10 pM NGF,90 ± 9
same,% Protection,[6]; compound 10 μM alone,−1 ± 2%
same,Optical Density,[6]; compound 10 μM alone,30 ± 7
same,% Binding of mAb 5C3 to TrkA-ECD,TrkA-ECD,96 ± 9%
same,ChAT Activity,septal neuronal cultures,0.30 ± 0.05 pmol Ach/min/well
same,Fold Increase (ChAT activity),septal neuronal cultures,1
same,% Maximal binding of mAb 5C3,cell surface TrkA,97 ± 6%
same,% Protection,[7],0 ± 1%
same,Optical Density,[7],271 ± 8
same,inhibition of mAb MC192 binding,p75 NGF receptor subunit,did not inhibit
same,% Protection,4-3.6 cells (p75+TrkA+); compound 10 μM + 10 pM NGF,41 ± 4%
same,Optical Density,4-3.6 cells (p75+TrkA+); compound 10 μM + 10 pM NGF,209 ± 17
same,% Protection,4-3.6 cells (p75+TrkA+); compound 10 μM alone,2 ± 1%
same,Optical Density,4-3.6 cells (p75+TrkA+); compound 10 μM alone,76 ± 4
